Experimental data published in patent US8030443B2, “Squamous cell carcinoma antigen-derived peptide binding to HLA-A24 molecule” (Kurume University, priority 2005, dated 2011).

Tested on: peptide-specific IgG in sera of cancer patients and healthy donors
Assay: Measurement of anti-peptide IgG in plasma by LUMINEX multiplexed flow cytometric assay
Format: binding, human
Description: The levels of anti-peptide immunoglobulin G (IgG) were measured by the LUMINEX™ system (multiplexed flow cytometric assay) as previously reported (Komatsu N, Shichijo S, Nakagawa M, Itoh K. New multiplexed flow cytometric assay to measure anti-peptide antibody: a novel tool for monitoring immune responses to peptides used for immunization. Scand J Clin Lab Invest 2004; 64:1-11). In brief, plasma was incubated with 25 μl of peptide-coupled color-coded beads for 2 hr at room temperature on a plate shaker. After incubation, the mixture was washed with a vacuum manifold apparatus and incubated with 100 μl of biotinylated goat anti-human IgG (γ chain-specific)(BA-3080, Vector Laboratories, Burlingame, Calif., USA) for 1 h at room temperature. The plate was then washed, followed by the addition of 100 μl of streptavidin-PE (S-866, Molecular Probes, Eugene, Oreg., USA) into wells, and was incubated for 30 min at room temperature on a plate shaker. The bound beads were washed three times followed by the addition of 100 μl of Tween-PBS into each well. Fifty μl of sample was detected using the LUMINEX™ system (multiplexed flow cytometric assay). To confirm the specificity of IgG to a SCCA peptide, sample plasma was cultured in plates coated with a corresponding SCCA peptide, or with an irrelevant SCCA peptide. After the operation was repeated three times, the levels of the corresponding SCCA peptide-specific IgG in the resulting supernatant were determined by the LUMINEX™ system (multiplexed flow cytometric assay).
These 9 SCCA-derived peptides were screened based on their ability to be recognized by IgG in cancer patients. Peptide-specific IgG was measured by a multiplexed flow cytometric assay (LUMINEX™ (multiplexed flow cytometric assay)). The plasma samples were derived from 35 uterine cervical SCC patients, 10 breast adenocarcinoma patients, 10 pancreatic adenocarcinoma patients, 10 gastric adenocarcinoma, and 6 colon adenocarcinoma patients. The level of fluorescence intensity was judged to be significant when exceeded 100 at an 1/100 dilution.

EFHCNHPFL (SCCA 362-370 peptide) [SCCA-derived peptide, position 362-370]
Total: healthy donors with significant peptide-reactive IgG / donors tested (10 healthy donors, significant when fluorescence intensity exceeded 100 at 1/100 dilution): 1/10 | Total: cancer patients with significant peptide-reactive IgG / patients tested (71 cancer patients, significant when fluorescence intensity exceeded 100 at 1/100 dilution): 10/71 | Fluorescence intesity (serum of Breast Ca. patient #36, 1:100 dilution): 10 | Fluorescence intesity (serum of Breast Ca. patient #37, 1:100 dilution): 24 | Fluorescence intesity (serum of Breast Ca. patient #38, 1:100 dilution): 8 | Fluorescence intesity (serum of Breast Ca. patient #39, 1:100 dilution): 11 | Fluorescence intesity (serum of Breast Ca. patient #40, 1:100 dilution): 7 | Fluorescence intesity (serum of Breast Ca. patient #41, 1:100 dilution): 215 | Fluorescence intesity (serum of Breast Ca. patient #42, 1:100 dilution): 19 | Fluorescence intesity (serum of Breast Ca. patient #43, 1:100 dilution): 10 | Fluorescence intesity (serum of Breast Ca. patient #44, 1:100 dilution): 0 | Fluorescence intesity (serum of Breast Ca. patient #45, 1:100 dilution): 20 | Fluorescence intesity (serum of Colon Ca. patient #66, 1:100 dilution): 0 | Fluorescence intesity (serum of Colon Ca. patient #67, 1:100 dilution): 0 | Fluorescence intesity (serum of Colon Ca. patient #68, 1:100 dilution): 0 | Fluorescence intesity (serum of Colon Ca. patient #69, 1:100 dilution): 0 | Fluorescence intesity (serum of Colon Ca. patient #70, 1:100 dilution): 1 | Fluorescence intesity (serum of Colon Ca. patient #71, 1:100 dilution): 19 | Fluorescence intesity (serum of Gastric Ca. patient #56, 1:100 dilution): 0 | Fluorescence intesity (serum of Gastric Ca. patient #57, 1:100 dilution): 0 | Fluorescence intesity (serum of Gastric Ca. patient #58, 1:100 dilution): 6 | Fluorescence intesity (serum of Gastric Ca. patient #59, 1:100 dilution): 10 | Fluorescence intesity (serum of Gastric Ca. patient #60, 1:100 dilution): 0 | Fluorescence intesity (serum of Gastric Ca. patient #61, 1:100 dilution): 1 | Fluorescence intesity (serum of Gastric Ca. patient #62, 1:100 dilution): 0 | Fluorescence intesity (serum of Gastric Ca. patient #63, 1:100 dilution): 0 | Fluorescence intesity (serum of Gastric Ca. patient #64, 1:100 dilution): 0 | Fluorescence intesity (serum of Gastric Ca. patient #65, 1:100 dilution): 0 | Fluorescence intesity (serum of Healthy Donor #1, 1:100 dilution): 0 | Fluorescence intesity (serum of Healthy Donor #2, 1:100 dilution): 37 | Fluorescence intesity (serum of Healthy Donor #3, 1:100 dilution): 0 | Fluorescence intesity (serum of Healthy Donor #4, 1:100 dilution): 0 | Fluorescence intesity (serum of Healthy Donor #5, 1:100 dilution): 0 | Fluorescence intesity (serum of Healthy Donor #6, 1:100 dilution): 0 | Fluorescence intesity (serum of Healthy Donor #7, 1:100 dilution): 0 | Fluorescence intesity (serum of Healthy Donor #8, 1:100 dilution): 283 | Fluorescence intesity (serum of Healthy Donor #9, 1:100 dilution): 29 | Fluorescence intesity (serum of Healthy Donor #10, 1:100 dilution): 0 | Fluorescence intesity (serum of Pancreas Ca. patient #46, 1:100 dilution): 0 | Fluorescence intesity (serum of Pancreas Ca. patient #47, 1:100 dilution): 1 | Fluorescence intesity (serum of Pancreas Ca. patient #48, 1:100 dilution): 339 | Fluorescence intesity (serum of Pancreas Ca. patient #49, 1:100 dilution): 0 | Fluorescence intesity (serum of Pancreas Ca. patient #50, 1:100 dilution): 0 | Fluorescence intesity (serum of Pancreas Ca. patient #51, 1:100 dilution): 0 | Fluorescence intesity (serum of Pancreas Ca. patient #52, 1:100 dilution): 104 | Fluorescence intesity (serum of Pancreas Ca. patient #53, 1:100 dilution): 0 | Fluorescence intesity (serum of Pancreas Ca. patient #54, 1:100 dilution): 6 | Fluorescence intesity (serum of Pancreas Ca. patient #55, 1:100 dilution): 0 | Fluorescence intesity (serum of Uterine cervical Ca. patient #1, 1:100 dilution): 0 | Fluorescence intesity (serum of Uterine cervical Ca. patient #2, 1:100 dilution): 0 | Fluorescence intesity (serum of Uterine cervical Ca. patient #3, 1:100 dilution): 0 | Fluorescence intesity (serum of Uterine cervical Ca. patient #4, 1:100 dilution): 0 | Fluorescence intesity (serum of Uterine cervical Ca. patient #5, 1:100 dilution): 3 | Fluorescence intesity (serum of Uterine cervical Ca. patient #6, 1:100 dilution): 611 | Fluorescence intesity (serum of Uterine cervical Ca. patient #7, 1:100 dilution): 11 | Fluorescence intesity (serum of Uterine cervical Ca. patient #8, 1:100 dilution): 49 | Fluorescence intesity (serum of Uterine cervical Ca. patient #9, 1:100 dilution): 90 | Fluorescence intesity (serum of Uterine cervical Ca. patient #10, 1:100 dilution): 15 | Fluorescence intesity (serum of Uterine cervical Ca. patient #11, 1:100 dilution): 28 | Fluorescence intesity (serum of Uterine cervical Ca. patient #12, 1:100 dilution): 37 | Fluorescence intesity (serum of Uterine cervical Ca. patient #13, 1:100 dilution): 25 | Fluorescence intesity (serum of Uterine cervical Ca. patient #14, 1:100 dilution): 17 | Fluorescence intesity (serum of Uterine cervical Ca. patient #15, 1:100 dilution): 106 | Fluorescence intesity (serum of Uterine cervical Ca. patient #16, 1:100 dilution): 191 | Fluorescence intesity (serum of Uterine cervical Ca. patient #17, 1:100 dilution): 56 | Fluorescence intesity (serum of Uterine cervical Ca. patient #18, 1:100 dilution): 50 | Fluorescence intesity (serum of Uterine cervical Ca. patient #19, 1:100 dilution): 48 | Fluorescence intesity (serum of Uterine cervical Ca. patient #20, 1:100 dilution): 104 | Fluorescence intesity (serum of Uterine cervical Ca. patient #21, 1:100 dilution): 22 | Fluorescence intesity (serum of Uterine cervical Ca. patient #22, 1:100 dilution): 27 | Fluorescence intesity (serum of Uterine cervical Ca. patient #23, 1:100 dilution): 56 | Fluorescence intesity (serum of Uterine cervical Ca. patient #24, 1:100 dilution): 1234 | Fluorescence intesity (serum of Uterine cervical Ca. patient #25, 1:100 dilution): 21 | Fluorescence intesity (serum of Uterine cervical Ca. patient #26, 1:100 dilution): 83 | Fluorescence intesity (serum of Uterine cervical Ca. patient #27, 1:100 dilution): 36 | Fluorescence intesity (serum of Uterine cervical Ca. patient #28, 1:100 dilution): 153 | Fluorescence intesity (serum of Uterine cervical Ca. patient #29, 1:100 dilution): 20 | Fluorescence intesity (serum of Uterine cervical Ca. patient #30, 1:100 dilution): 35 | Fluorescence intesity (serum of Uterine cervical Ca. patient #31, 1:100 dilution): 133 | Fluorescence intesity (serum of Uterine cervical Ca. patient #32, 1:100 dilution): 23 | Fluorescence intesity (serum of Uterine cervical Ca. patient #33, 1:100 dilution): 93 | Fluorescence intesity (serum of Uterine cervical Ca. patient #34, 1:100 dilution): 16 | Fluorescence intesity (serum of Uterine cervical Ca. patient #35, 1:100 dilution): 21
